Data: PubChem BioAssay (NCI)
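Cells were grown in 96-well plates and exposed to each compound for 48 hours at five concentrations; endpoints were interpolated linearly between bracketing concentrations, or set to the highest concentration if not reached. TGI: concentration producing complete growth inhibition.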

Experiments:
Test in all cases: inhibition of tumour cell growth, NCI panel, 48 h
[1] = test system: SR leukemia
[2] = test system: SK-MEL-5 melanoma
[3] = test system: SNB-19 CNS
[4] = test system: K-562 leukemia
[5] = test system: OVCAR-8 ovarian
[6] = test system: OVCAR-4 ovarian
[7] = test system: SK-OV-3 ovarian
[8] = test system: U251 CNS
[9] = test system: A498 renal
[10] = test system: HCT-116 colon
[11] = test system: M14 melanoma
[12] = test system: OVCAR-3 ovarian
[13] = test system: SN12C renal
[14] = test system: BT-549 breast
[15] = test system: NCI-H23 lung
[16] = test system: PC-3 prostate
[17] = test system: LOX IMVI melanoma
[18] = test system: MDA-MB-231 breast
[19] = test system: SF-539 CNS
[20] = test system: CCRF-CEM leukemia
[21] = test system: HOP-92 NSCLC
[22] = test system: SF-295 CNS
[23] = test system: HCC-2998 colon
[24] = test system: OVCAR-5 ovarian
[25] = test system: 786-0 renal
[26] = test system: ACHN renal
[27] = test system: COLO 205 colon
[28] = test system: MDA-N
[29] = test system: T-47D breast
[30] = test system: MOLT-4 leukemia
[31] = test system: CAKI-1 renal
[32] = test system: RPMI-8226 leukemia
[33] = test system: MALME-3M melanoma
[34] = test system: SK-MEL-2 melanoma
[35] = test system: UACC-257 melanoma
[36] = test system: MCF7 breast
[37] = test system: EKVX NSCLC
[38] = test system: HS 578T breast
[39] = test system: HOP-62 NSCLC
[40] = test system: HCT-15 colon
[41] = test system: IGROV1 ovarian
[42] = test system: NCI-H522 lung
[43] = test system: MDA-MB-435
[44] = test system: UACC-62 melanoma
[45] = test system: NCI/ADR-RES ovarian
[46] = test system: HT29 colon
[47] = test system: RXF 393 renal
[48] = test system: DU-145 prostate
[49] = test system: UO-31 renal
[50] = test system: KM12 colon
[51] = test system: SK-MEL-28 melanoma
[52] = test system: SW-620 colon
[53] = test system: NCI-H460 lung
[54] = test system: A549 NSCLC
[55] = test system: SF-268 CNS
[56] = test system: HL-60(TB) leukemia
[57] = test system: SNB-75 CNS
[58] = test system: NCI-H226 lung
[59] = test system: TK-10 renal

O=C(CCc1cccc(O)c1)NCCCNC(=O)CCc1cccc(O)c1
TGI [1]: > 100 µM
TGI [2]: > 100 µM
TGI [3]: > 100 µM
TGI [4]: > 100 µM
TGI [5]: > 100 µM
TGI [6]: > 100 µM
TGI [7]: > 100 µM
TGI [8]: > 100 µM
TGI [9]: > 100 µM
TGI [10]: > 100 µM
TGI [11]: > 100 µM
TGI [12]: > 100 µM
TGI [13]: > 100 µM
TGI [14]: > 100 µM
TGI [15]: > 100 µM
TGI [16]: > 100 µM
TGI [17]: > 100 µM
TGI [18]: > 100 µM
TGI [19]: > 100 µM
TGI [20]: > 100 µM
TGI [21]: > 100 µM
TGI [22]: > 100 µM
TGI [23]: > 100 µM
TGI [24]: > 100 µM
TGI [25]: > 100 µM
TGI [26]: > 100 µM
TGI [27]: > 100 µM
TGI [28]: > 100 µM
TGI [29]: > 100 µM
TGI [30]: > 100 µM
TGI [31]: > 100 µM
TGI [32]: > 100 µM
TGI [33]: > 100 µM
TGI [34]: > 100 µM
TGI [35]: > 100 µM
TGI [36]: > 100 µM
TGI [37]: > 100 µM
TGI [38]: > 100 µM
TGI [39]: > 100 µM
TGI [40]: > 100 µM
TGI [41]: > 100 µM
TGI [42]: > 100 µM
TGI [43]: > 100 µM
TGI [44]: > 100 µM
TGI [45]: > 100 µM
TGI [46]: > 100 µM
TGI [47]: > 100 µM
TGI [48]: > 100 µM
TGI [49]: > 100 µM
TGI [50]: > 100 µM
TGI [51]: > 100 µM
TGI [52]: > 100 µM
TGI [53]: > 100 µM
TGI [54]: > 100 µM
TGI [55]: > 100 µM

O=C(c1ccco1)C1CC(c2c(O)ccc3ccccc23)=NN1 (stereo not given)
TGI [1]: 42.8 µM
TGI [2]: 29.7 µM
TGI [3]: 47.8 µM
TGI [4]: > 100 µM
TGI [5]: 51.5 µM
TGI [6]: > 100 µM
TGI [7]: 56.6 µM
TGI [8]: 34.1 µM
TGI [9]: 40.4 µM
TGI [56]: 53.8 µM
TGI [11]: 26 µM
TGI [12]: 25.8 µM
TGI [13]: 46 µM
TGI [14]: 31 µM
TGI [15]: 37.7 µM
TGI [16]: 21.1 µM
TGI [18]: 37.3 µM
TGI [19]: 26.7 µM
TGI [20]: 93 µM
TGI [21]: 37.4 µM
TGI [22]: 23.3 µM
TGI [23]: 25.7 µM
TGI [24]: 36.3 µM
TGI [26]: 25 µM
TGI [27]: 21.7 µM
TGI [57]: 33.6 µM
TGI [28]: 36.4 µM
TGI [29]: 50.5 µM
TGI [30]: 42.7 µM
TGI [31]: 38.8 µM
TGI [58]: 40.2 µM
TGI [32]: 86.6 µM
TGI [33]: 37.9 µM
TGI [34]: 39.2 µM
TGI [35]: 57.9 µM
TGI [36]: 22 µM
TGI [37]: 32.4 µM
TGI [38]: 46.3 µM
TGI [39]: 27.3 µM
TGI [40]: > 100 µM
TGI [41]: 42 µM
TGI [59]: 32.5 µM
TGI [42]: 22.5 µM
TGI [43]: 22.4 µM
TGI [44]: 26 µM
TGI [45]: 51.1 µM
TGI [46]: 24 µM
TGI [47]: 50 µM
TGI [48]: 30.8 µM
TGI [49]: 23.1 µM
TGI [50]: 24.3 µM
TGI [51]: 47.8 µM
TGI [52]: 31 µM
TGI [53]: 19.9 µM
TGI [55]: 30.2 µM
